# Earlier results in article PMC2751796 (Pharmacology & therapeutics, 2009).
# Where two headings read alike, the source gives them in different places.
# Assays:
# [1] = system: MRPs, organic anion transporters; conditions: ref Deguchi et al., 2000; cited from earlier work
# P-gp [2] = target: P-gp (Rattus norvegicus, UniProt Q6PSM0); conditions: cited from earlier work; for Increase in brain-to-plasma AUC ratio with elacridar: studies in rats (so in the source), ref Barraud de Lagerie et al., 2004
# P-gp [3] = conditions: read-out: Reported EC50; ref Ekins et al., 2002; Rautio et al., 2006; cited from earlier work
# [4] = cited from earlier work
# P-gp [5] = conditions: cited from earlier work; for Fold change in brain uptake ratio in inhibitor-treated vs. control mice / Fold change in brain uptake ratio in inhibitor-treated vs. control mice (value corrected for drug in vasculature): Conc.
# P-gp [6] = conditions: ref Hugnet et al., 1996; Mealey et al., 2001, 2003, 2008; Sartor et al., 2004; cited from earlier work
# [7] = cited from earlier work; remark: listed apart in the source
# P-gp [8] = conditions: four adult rhesus monkeys; ref Warren et al., 2000; cited from earlier work
# [9] = cited from earlier work; for Increase of plasma AUC with ritonavir (200 mg twice daily, 5.5 days): ref Mukwaya et al., 2005
# P-gp [10] = conditions: cited from earlier work
# [11] = mice, cited from earlier work
# hPXR = conditions: ref Bauer et al., 2006, cited from earlier work
# P-gp [12] = conditions: parameter not given; ref Saito et al., 2001; cited from earlier work
# P-gp and BCRP = conditions: ref Oostendorp et al., 2009; Chen et al., 2008; cited from earlier work
# Bcrp = conditions: mouse, in vivo; cited from earlier work
# [13] = 16 mg, eight healthy subjects, ref Sadeque et al., 2000
# [14] = Valspodar (12.5 mg/kg, IV), ref Choo et al., 2000
# [15] = Verapamil (12.5 mg/kg, IV), ref Choo et al., 2000
# [16] = Zosuquidar (50 mg/kg, IV), ref Choo et al., 2000
# P-gp (Rattus norvegicus, UniProt Q6PSM0), sequence (Q6PSM0 1-1272): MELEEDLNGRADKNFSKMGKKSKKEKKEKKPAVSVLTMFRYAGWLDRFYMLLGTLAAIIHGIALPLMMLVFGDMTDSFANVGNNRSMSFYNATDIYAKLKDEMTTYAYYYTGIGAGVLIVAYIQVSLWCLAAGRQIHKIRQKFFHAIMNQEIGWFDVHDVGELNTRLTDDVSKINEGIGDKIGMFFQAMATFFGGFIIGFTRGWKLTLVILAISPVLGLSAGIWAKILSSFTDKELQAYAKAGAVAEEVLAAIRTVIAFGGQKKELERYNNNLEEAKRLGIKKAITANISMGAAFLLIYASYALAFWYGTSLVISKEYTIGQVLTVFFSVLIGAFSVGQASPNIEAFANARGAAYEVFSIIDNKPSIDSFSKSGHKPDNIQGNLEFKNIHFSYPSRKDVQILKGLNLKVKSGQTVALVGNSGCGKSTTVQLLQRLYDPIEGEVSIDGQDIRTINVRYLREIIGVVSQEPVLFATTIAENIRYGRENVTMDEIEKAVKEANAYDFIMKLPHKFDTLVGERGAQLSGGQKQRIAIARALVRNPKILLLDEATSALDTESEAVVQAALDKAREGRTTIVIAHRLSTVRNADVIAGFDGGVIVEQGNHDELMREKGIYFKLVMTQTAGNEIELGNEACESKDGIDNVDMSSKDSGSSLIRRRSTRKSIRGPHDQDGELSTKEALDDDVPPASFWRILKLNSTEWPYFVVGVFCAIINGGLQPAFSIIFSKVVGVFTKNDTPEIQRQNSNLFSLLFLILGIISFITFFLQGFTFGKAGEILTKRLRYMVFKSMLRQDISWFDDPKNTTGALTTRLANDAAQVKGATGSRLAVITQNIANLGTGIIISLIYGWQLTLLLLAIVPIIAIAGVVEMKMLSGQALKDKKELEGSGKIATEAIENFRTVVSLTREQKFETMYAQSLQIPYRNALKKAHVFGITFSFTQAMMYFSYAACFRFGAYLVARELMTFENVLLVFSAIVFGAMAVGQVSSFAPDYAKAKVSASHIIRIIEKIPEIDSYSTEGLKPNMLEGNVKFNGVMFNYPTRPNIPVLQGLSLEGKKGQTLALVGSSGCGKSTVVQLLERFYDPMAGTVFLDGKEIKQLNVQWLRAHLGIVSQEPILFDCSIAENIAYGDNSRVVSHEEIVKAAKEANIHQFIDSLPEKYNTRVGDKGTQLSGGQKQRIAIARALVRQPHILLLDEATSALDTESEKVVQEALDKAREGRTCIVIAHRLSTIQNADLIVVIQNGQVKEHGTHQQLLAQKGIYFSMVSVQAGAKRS
compound,measurement,setting,value
Sc1ncnc2nc[nH]c12 [6-mercaptopurine],Increase of brain-to-plasma concentration ratio with probenecid in rats,[1],up to 4.4 fold
"O[C@@H](c1cc(C(F)(F)F)nc2c(C(F)(F)F)cccc12)[C@H]1CCCCN1 [(+) mefloquine, mefloquine]",Increase in brain-to-plasma AUC ratio with elacridar,P-gp [2],2.5 times
"O[C@H](c1cc(C(F)(F)F)nc2c(C(F)(F)F)cccc12)[C@@H]1CCCCN1 [(-) mefloquine, mefloquine]",Increase in brain-to-plasma AUC ratio with elacridar,P-gp [2],1.5 times
O=c1[nH]cnc2c1ncn2[C@H]1CC[C@@H](CO)O1 [Didanosine],Precipitant drug concentration (plasma),"[4]; ref Tuntland et al., 1994",0.9 to 11.3 µg/mL
CC(=O)O[C@@]12CO[C@@H]1C[C@H](O)[C@@]1(C)C(=O)[C@H](O)C3=C(C)[C@@H](OC(=O)[C@H](O)[C@@H](NC(=O)OC(C)(C)C)c4ccccc4)C[C@@](O)([C@@H](OC(=O)c4ccccc4)[C@H]21)C3(C)C [Docetaxel],Increase in brain uptake by single oral doses of valspodar and elacridar,"P-gp [5]; ref Kemper et al., 2004c",up to 2.6 fold
COc1cccc2c1C(=O)c1c(O)c3c(c(O)c1C2=O)C[C@@](O)(C(=O)CO)C[C@@H]3O[C@H]1C[C@H](N)[C@H](O)[C@H](C)O1 [Doxorubicin],Effect of exposure in Collie and other dog breeds that naturally lack P-gp,P-gp [6],neurological symptoms
same,CNS distribution in untreated subjects (ventricular CSF / plasma conc. ratio),"[7]; ref Warren et al., 2000",< 0.05 (ventricular CSF / plasma conc. ratio)
same,CSF concentrations alone or with intravenous cyclosporine,P-gp [8],below the limit of detection
CC[C@H]1OC(=O)[C@H](C)[C@@H](O[C@H]2C[C@@](C)(OC)[C@@H](O)[C@H](C)O2)[C@H](C)[C@@H](O[C@@H]2O[C@H](C)C[C@H](N(C)C)[C@H]2O)[C@](C)(O)C[C@@H](C)C(=O)[C@H](C)[C@@H](O)[C@]1(C)O [Erythromycin],EC50,P-gp [3],38 µM
Cc1ccc(NC(=O)c2ccc(CN3CCN(C)CC3)cc2)cc1Nc1nccc(-c2cccnc2)n1 [Imatinib],Enhancement of brain uptake by valspodar or zosuquidar,"P-gp [5]; ref Bihorel et al., 2007",up to 3 fold
same,Increase in brain distribution with elacridar in WT mice,"P-gp [5]; ref Breedveld et al., 2005, Oostendorp et al., 2009",up to 5 fold
CC(C)(C)NC(=O)[C@@H]1CN(Cc2cccnc2)CCN1C[C@@H](O)C[C@@H](Cc1ccccc1)C(=O)N[C@H]1c2ccccc2C[C@H]1O [Indinavir],EC50,P-gp [3],> 50 µM
CCC(C)n1ncn(-c2ccc(N3CCN(c4ccc(OCC5COC(Cn6cncn6)(c6ccc(Cl)cc6Cl)O5)cc4)CC3)cc2)c1=O (centres unmarked) [Itraconazole],EC50,P-gp [3],0.5 µM
CN(C)C(=O)C(CCN1CCC(O)(c2ccc(Cl)cc2)CC1)(c1ccccc1)c1ccccc1 [Loperamide],Increase of plasma AUC with 600 mg ritonavir,"[9]; 12 healthy volunteers, ref Tayrouz et al., 2001",2.7 fold
same,"Increase of plasma AUC with ritonavir (200 mg twice daily, 5.5 days)",[9],2.2 fold
same,"Opioid-induced respiratory depression, given alone",P-gp [10]; [13],did not produce respiratory depression
same,"Opioid-induced respiratory depression, with quinidine sulfate (600 mg)",P-gp [10]; [13],respiratory depression occurred
same,"Effect of tariquidar (150 mg, iv) on plasma concentrations and CNS effects","P-gp [10]; loperamide 32 mg orally, nine healthy volunteers, ref Kurnik et al., 2008",did not significantly affect
same,Effect of exposure in Collie and other dog breeds that naturally lack P-gp,P-gp [6],neurological symptoms
CNC(=O)C(CCN1CCC(O)(c2ccc(Cl)cc2)CC1)(c1ccccc1)c1ccccc1 [N-desmethyl-loperamide],"Increase of plasma AUC with ritonavir (200 mg twice daily, 5.5 days)",[9],1.4 fold
Cc1c(O)cccc1C(=O)N[C@@H](CSc1ccccc1)[C@H](O)CN1C[C@H]2CCCC[C@H]2C[C@H]1C(=O)NC(C)(C)C [Nelfinavir],Fold change in brain uptake ratio in inhibitor-treated vs. control mice,"P-gp [5]; Elacridar (10 mg/kg, IV), ref Salama et al., 2005, Giri et al., 2008",8.7 fold
same,Fold change in brain uptake ratio in inhibitor-treated vs. control mice (value corrected for drug in vasculature),"P-gp [5]; Elacridar (10 mg/kg, IV), ref Salama et al., 2005",8.9 fold
same,Fold change in brain uptake ratio in inhibitor-treated vs. control mice,P-gp [5]; [14],10.3 fold
same,Fold change in brain uptake ratio in inhibitor-treated vs. control mice (value corrected for drug in vasculature),P-gp [5]; [14],13.3 fold
same,Fold change in brain uptake ratio in inhibitor-treated vs. control mice,P-gp [5]; [15],"1.0 (1.0), Conc. fold"
same,Fold change in brain uptake ratio in inhibitor-treated vs. control mice (value corrected for drug in vasculature),P-gp [5]; [15],"1.0 (1.0), Conc. fold"
same,Fold change in brain uptake ratio in inhibitor-treated vs. control mice,P-gp [5]; [16],18.1 fold
same,Fold change in brain uptake ratio in inhibitor-treated vs. control mice (value corrected for drug in vasculature),P-gp [5]; [16],25.1 fold
same,Fold change in brain uptake ratio in inhibitor-treated vs. control mice,"P-gp [5]; Zosuquidar (50 mg/kg, IV), ref Choo et al., 2000, listed as nelfinavir",up to 18 fold
same,EC50,P-gp [3],1.4 to 44 µM
same,CNS distribution in untreated subjects (brain / plasma conc. ratio),"[7]; ref Kaddoumi et al., 2007, Eyal, et al., 2009",0.04
same,"CNS distribution in untreated subjects (lumbar CSF / plasma, conc. ratio)","[7]; ref Kaddoumi et al., 2007",0.006
same,Increase in brain uptake with zosuquidar in rats,"P-gp [2]; dose-dependent, ref Anderson et al., 2006",≤ 29 fold
CC(=O)O[C@H]1C(=O)[C@@]2(C)[C@H]([C@H](OC(=O)c3ccccc3)[C@]3(O)C[C@H](OC(=O)[C@H](O)[C@@H](NC(=O)c4ccccc4)c4ccccc4)C(C)=C1C3(C)C)[C@]1(OC(C)=O)CO[C@@H]1C[C@@H]2O [Paclitaxel],Increase in brain uptake with elacridar,"P-gp [5]; elacridar plasma concentrations <900 ng/ml, ref Kemper et al., 2003",5 fold
C=C[C@H]1C[N@@]2CC[C@H]1C[C@@H]2[C@@H](O)c1ccnc2ccc(OC)cc12 [Quinidine],Inhibitor concentration (plasma),"[11]; 100 mg/kg, IP, ref Fromm et al., 1999",~2 µM
same,Total concentration achievable in humans treated for tumors,"[9]; ref Raderer & Scheithauer, 1993",4.5 to 5.6 µM
same,EC50,P-gp [3],2 to 55 µM
CO[C@H]1/C=C/O[C@@]2(C)Oc3c(C)c(O)c4c(O)c(c(/C=N/N5CCN(C)CC5)c(O)c4c3C2=O)NC(=O)/C(C)=C\C=C\[C@H](C)[C@H](O)[C@@H](C)[C@@H](O)[C@@H](C)[C@H](OC(C)=O)[C@@H]1C [Rifampin],Predicted average steady state unbound plasma concentration,"hPXR; 50 mg/kg, oral, for 3 days",0.34 µg/mL
CC(C)(C)NC(=O)[C@@H]1C[C@@H]2CCCC[C@@H]2CN1C[C@@H](O)[C@H](Cc1ccccc1)NC(=O)[C@H](CC(N)=O)NC(=O)c1ccc2ccccc2n1 [Saquinavir],Fold change in brain uptake ratio in inhibitor-treated vs. control mice,P-gp [5]; [16],"∼ 3.0, Conc. fold"
same,EC50,P-gp [3],6.5 µM
C/C=C/C[C@@H](C)C(=O)[C@H]1C(=O)N[C@@H](C(C)C)C(=O)N(C)CC(=O)N(C)[C@@H](CC(C)C)C(=O)N[C@@H](C(C)C)C(=O)N(C)[C@@H](CC(C)C)C(=O)N[C@@H](C)C(=O)N[C@H](C)C(=O)N(C)[C@@H](CC(C)C)C(=O)N(C)[C@@H](CC(C)C)C(=O)N(C)[C@@H](C(C)C)C(=O)N1C [Valspodar],Inhibitor concentration (brain),"[11]; 50 mg/kg, PO, ref Mayer et al., 1997",250 ng/g
CC[C@]1(O)C[C@@H]2CN(CCc3c([nH]c4ccccc34)[C@@](C(=O)OC)(c3cc4c(cc3OC)N(C)[C@H]3[C@@](O)(C(=O)OC)[C@H](OC(C)=O)[C@]5(CC)C=CCN6CC[C@]43[C@@H]65)C2)C1 [Vinblastine],Fold change in brain uptake ratio in P-gp KO vs. control mice,P-gp [12],3.3 fold
same,Fold change in brain uptake ratio in P-gp KO vs. control mice (value corrected for drug in vasculature),P-gp [12],3.4 fold
same,Increase in brain uptake by valspodar and elacridar,"P-gp [5]; ref Cisternino et al., 2001",3 fold
same,Effect of exposure in Collie and other dog breeds that naturally lack P-gp,P-gp [6],neurological symptoms
CC[C@]1(O)C[C@H]2CN(CCc3c([nH]c4ccccc34)[C@@](C(=O)OC)(c3cc4c(cc3OC)N(C=O)[C@H]3[C@@](O)(C(=O)OC)[C@H](OC(C)=O)[C@]5(CC)C=CCN6CC[C@]43[C@@H]65)C2)C1 [Vincristine],Effect of exposure in Collie and other dog breeds that naturally lack P-gp,P-gp [6],neurological symptoms
Cc1cn([C@H]2C[C@H](N=[N+]=[N-])[C@@H](CO)O2)c(=O)[nH]c1=O [Zidovudine],Precipitant drug concentration (CSF),"[4]; ref Tuntland et al., 1994",0.1 to 2.2 µg/mL
same,Precipitant drug concentration (plasma),"[4]; ref Tuntland et al., 1994",0.5 to 11.2 µg/mL
O[C@@H](COc1cccc2ncccc12)CN1CCN([C@@H]2c3ccccc3[C@@H]3[C@H](c4ccccc42)C3(F)F)CC1 [Zosuquidar],Precipitant drug concentration (CSF),[4]; in vivo,0.0085 µg/mL
Cc1nc(Nc2ncc(C(=O)Nc3c(C)cccc3Cl)s2)cc(N2CCN(CCO)CC2)n1 [dasatinib],Increase of brain-to-plasma concentration ratio in triple KO mice,P-gp and BCRP,10 fold
CCC(=O)C(CC(C)N(C)C)(c1ccccc1)c1ccccc1 (centres unmarked) [methadone],Decrease of antinociceptive effect after rifampin,"hPXR; hPXR transgenic mice, vs. vehicle",70%
CCCN(CCC)S(=O)(=O)c1ccc(C(=O)O)cc1 [probenecid],Probenecid CSF concentrations at 2500 mg/m^2,"[9]; ref Bode et al., 1980",2.4 to 3.4 µg/mL
CC(C)(C)c1ccc(C(O)CCCN2CCC(C(O)(c3ccccc3)c3ccccc3)CC2)cc1 (centres unmarked) [terfenadine],Increase in brain uptake with cyclosporine in rats,"P-gp [2]; ref Obradovic et al., 2007",several-fold
CC[C@@]1(O)C(=O)OCc2c1cc1n(c2=O)Cc2cc3c(CN(C)C)c(O)ccc3nc2-1 [topotecan lactone],Decrease of ventricular CSF-to-plasma AUC ratio with gefitinib,Bcrp,17%
[^18F]-Paclitaxel,CNS distribution in untreated subjects (brain / metabolite-corrected plasma AUC ratio),"[7]; ref Kurdziel et al., 2003",0.05 (brain / metabolite-corrected plasma AUC ratio)
